Reference: PMC11395145, “The Archetypal Gamma-Core Motif of Antimicrobial Cys-Rich Peptides Inhibits H^+-ATPases in Target Pathogens” (International Journal of Molecular Sciences, 2024)
Where a SMILES comes first, the peptide text is derived from it. Bridges are numbered along the chain shown (N, C = ends).

Key:
[1] = test system: Pseudomonas aeruginosa 10145 (PAO1); assay: Microbicidal (spread-plate cell viability) assay, pseudomonacidal activity; type: cell-based; conditions: for microbicidal (pseudomonacidal) activity, in words: 90 min, 37 °C, Tris buffer pH 7.4, 10^6 cells/mL, CFU plating
Procedure: (§1) First, we tested the antimicrobial activity of Kal-1 and a shorter Kal-1-derived peptide (Kdp15), both containing the complete γ-core signature of human lactoferrin, against C. albicans and P. aeruginosa. Microbicidal (cidal) activity was determined after 90 min of incubation (37 °C; pH 7.4) with a range of concentrations of each hLf-derived peptide.
(§2) Figure 1 Cell viability and membrane permeabilization assays. C. albicans or P. aeruginosa (10^6 cells/mL) were incubated (90 min, 37 °C) with each peptide/protein at the indicated concentrations. Aliquots were plated on SDA or […], and colonies were counted after 24–48 h (C. albicans) or 24 h (P. aeruginosa). At each point, samples were stained with propidium iodide (PI) and intracellular PI incorporation, indicative of membrane permeabilization, was quantified by flow cytometry. The relative cell viability (blue lines) and cellular permeabilization (red lines) were calculated as the percentage of untreated cells. Human lactoferrin (hLf) and the peptide Lfpep were used as negative and positive controls of cellular permeabilization, respectively.
(§3) Microbial susceptibility to the peptides was determined in a spread-plate assay as described previously. Briefly, two-fold serially diluted peptides were incubated (37 °C) with approximately 10^6 cells/mL in Tris buffer (10 mM Tris-HCl, pH 7.4). After 90 min of incubation with the peptides, aliquots were removed and plated in duplicate on an appropriate agar plate for each species (SDA for C. albicans, TSA for P. aeruginosa). The plates were incubated for 24–48 h at 30 °C (C. albicans) or 24 h at 37 °C (P. aeruginosa) for enumeration. The cell viability values, expressed as colony forming units (CFUs), were determined relative to incubation without added peptides and represent the mean ± standard deviation (±SD) of at least three independent determinations. For inhibition assays, the cell suspensions were preincubated (15 min at 37 °C) with the corresponding inhibitors before the addition of peptides. Water-insoluble inhibitors were prepared in DMSO, such that the final assay volume was ≤1%. Other specific experimental inhibition conditions are described where appropriate. The IC50 value is expressed as the concentration that caused 50% reduction in viable counts.

[2] = test system: Candida albicans ATCC 10231; assay: Microbicidal (spread-plate cell viability) assay, candidacidal activity; type: cell-based; conditions: for microbicidal (candidacidal) activity, in words: 90 min, 37 °C, Tris buffer pH 7.4, 10^6 cells/mL, CFU plating
Procedure: as §1, §2, §3

C. albicans cells [3] = assay: Measurement of intracellular ATP (BacTiter-Glo); type: cell-based, Candida albicans; conditions: C. albicans 10^6 cells/mL, candidacidal concentration, 90 min, 37 °C; BM2 0.25 μM
Procedure: Total ATP was measured by using the BacTiter-Glo^TM Microbial Cell Viability Assay (Promega Co., Madison, WI, USA) according to the manufacturer’s instructions. […] Aliquots (100 μL) were incubated (90 min at 37 °C) with kaliocin-1, Kdp15, or human lactoferrin and the BM2 peptide (positive control). One hundred microliters of incubation mix was transferred into a 96-well opaque white plate, mixed with an equal volume of the BacTiter-Glo reagent, and incubated for 15 min in the dark. The reagent used a thermostable luciferase to produce luminescence in an ATP-dependent manner. The emitted luminescence was detected by using a Varioskan Flash multimode reader (Thermo Scientific, Waltham, MA, USA) with a 10 s of shaking and 1 s integration time. A calibration curve was prepared for each experiment, with ATP standards ranging from 1 to 1000 nM. For assays performed in the presence of the BM2 peptide, samples were preincubated with 0.25 μM BM2 for 30 min at 37 °C. All the tests were performed in triplicate at least four times.

[4] = test system: Candida albicans ATCC 10231; conditions: used in control assays; cited from earlier work
Procedure: as §1, with “peptide. The hLf γ-core-containing peptides were microbicidal in a concentration-dependent way (Figure 1). […] The IC50 es ...” for “peptide.”

C. albicans cells [5] = assay: Oxygen consumption measurement (Clark-type electrode); type: cell-based, Candida albicans; conditions: 5 × 10^6 cells/mL, peptides at IC50, piericidin A 32 μM, at least 30 min, 25 °C
Procedure: (§4) Figure 3 Effect of cellular respiration on the microbicidal activity of hLf γ-core-containing peptides. (A,C) Oxygen consumption was measured in C. albicans and P. aeruginosa cellular suspensions in the absence (control) or the presence of kaliocin-1 (Kal-1), Kdp15, or human lactoferrin (hLf), and piericidin A (positive control). (B,D) Effect of cellular respiration on the microbicidal activity of hLf γ-core-containing peptides. Cells (10^6 cells/mL) were pre-incubated (15 min, 37 °C) with 32 μM piericidin A and incubated for 90 min at 37 °C with the peptides hLf or BM2. The cell viability was determined by means of the plate counting method. The results are the mean ± SD from duplicates of at least three independent experiments. * p < 0.05, ** p < 0.01, and *** p < 0.001 were used.
(§5) C. albicans or P. aeruginosa cells were grown to the mid-logarithmic phase, washed twice in Tris buffer, and resuspended in the same buffer, as described in [9, 10]. Briefly, cells (5 × 10^6 cells/mL) were pre-incubated for 15 min at 37 °C with the peptides (IC50). […] Oxygen consumption was measured using a Clark-type oxygen electrode (Dual digital-model 20, Rank Brothers Ltd., Cambridge, UK) in a closed jacketed chamber maintained at 25 °C. […] The viability of the cells was determined at 30 min by removing aliquots from the oxygen chambers and plating the subsequent dilutions on SDA or TSA plates.

P. aeruginosa cells = assay: as above; type: cell-based, Pseudomonas aeruginosa; conditions: 5 × 10^6 cells/mL, peptides at IC50, piericidin A 32 μM, at least 30 min, 25 °C
Procedure: as §4, §5

[6] = concentration range 0 to 100 μM

Compound: HCKNKEHLRSGRCRDDFRCWCT [PvD1, 22-aa γ-core fragment of defensin PvD1 from Phaseolus vulgaris (bean)]
- microbicidal (pseudomonacidal) activity, in words [1]: showed pseudomonacidal activity

Compound: CAGTGENKC [Kdp9]
- antimicrobial activity, in words [2, 6]: not detected
- antimicrobial activity, in words [1, 6]: not detected

Compound: D-NH2-RRRFWWFRRR-CONH2 [BM2, reference compound]
- decrease of candidacidal activity by oligomycin A ([2]; 0.25 μM BM2, cells pre-incubated 15 min, 37 °C with 16 μg/mL oligomycin A): ~ 62%
- effect of high external K^+ on candidacidal activity ([2]; Tris buffer with 50 mM KCl vs without): decreased
- effect of respiration inhibition (piericidin A) on candidacidal activity ([2]; cells pre-incubated 15 min, 37 °C with 32 μM piericidin A, then 90 min with peptide): substantially inhibited
- effect of Tok1p K^+ channel block (TEA^+) on candidacidal activity ([2]; cells pre-incubated 15 min with 10 mM TEA^+): significantly (p < 0.001) inhibited
- increment in intracellular ATP (iATP) level compared to untreated control (C. albicans cells [3]): ~ 9 fold
- previously reported microbicidal concentration (organism not given) [4]: 0.25 µM

Compound: CC[C@H](C)[C@@H]1NC(=O)[C@H](C(C)C)NC(=O)[C@H](CC(C)C)NC(=O)CNC(=O)[C@H](C(C)C)NC(=O)[C@@H]2CCCN2C(=O)[C@H]([C@@H](C)CC)NC(=O)[C@@H]2CSSC[C@@H]3NC(=O)[C@H](C(C)C)NC(=O)CNC(=O)[C@H](CC(N)=O)NC(=O)[C@@H](NC(=O)[C@H](CO)NC(=O)[C@H](C)NC(C)=O)CSSC[C@H](NC(=O)[C@H](C)NC(=O)[C@H](CO)NC(=O)[C@H]([C@@H](C)O)NC(=O)CNC(=O)[C@H](CSSC[C@@H](C(=O)N[C@@H](CCCNC(=N)N)C(=O)N[C@@H](CC(N)=O)C(=O)N4CCC[C@H]4C(=O)N[C@@H](CO)C(=O)NCC(N)=O)NC(=O)[C@H](Cc4ccc(O)cc4)NC(=O)CNC1=O)NC(=O)[C@@H]1CCCN1C(=O)[C@@H]1CCCN1C(=O)[C@H](CCSC)NC(=O)[C@H](CCC(=O)O)NC(=O)[C@H](Cc1ccccc1)NC(=O)[C@@H]1CCCN1C(=O)[C@H](CO)NC3=O)C(=O)N[C@@H](CCCNC(=N)N)C(=O)N2 [PA1b] (Ac-ASCNGVCSPFEMPPCGTSACRCIPVGLVIGYCRNPSG-NH2; disulfide 3-20, 7-22, 15-32)
- microbicidal (candidacidal) activity, in words [2]: showed candidacidal activity
- microbicidal (pseudomonacidal) activity, in words [1]: not pseudomonacidal

Compound: C/C=C(\C)[C@H](O)[C@H](C)/C=C(C)/C=C/C/C(C)=C/Cc1nc(OC)c(OC)c(O)c1C [piericidin A, reference compound]
- oxygen consumption of C. albicans in presence of the substance (C. albicans cells [5]): inhibited
- oxygen consumption of P. aeruginosa in presence of the substance (P. aeruginosa cells): inhibited

Compound: GSKKPVPIIYCNRRTGKCQRM [Thanatin, complete 21-aa antimicrobial peptide from Podisus maculiventris (insect)]
- microbicidal (candidacidal) activity, in words [2]: most potent
- microbicidal (pseudomonacidal) activity, in words [1]: most potent
